The source of these data is patent US10590137B2, “Mercaptopurine hemihydrate” (THE REGENTS OF THE UNIVERSITY OF MICHIGAN, priority 2016, dated 2020).

Data set [1] can be described thus: stability to hydration: slurry conversion monitored by non-contact Raman probe. The format is physicochemical. The note with it: aqueous slurry; for time to convert to the monohydrate form: full conversion. How it is done:
In order to determine the stability to hydration, slurries of the anhydrate and hemihydrate forms were monitored using a non-contact Raman probe.
Raman spectra during slurry conversion were collected using a Kaiser Optical Systems Raman Rxn Microprobe equipped with a Multi-Rxn non-contact optic, 785 nm laser, and a multi-channel CCD detector. Spectra were collected with a range of 150-3425 cm^−1 and then analyzed using the HoloGRAMS 4.1 software package (Kaiser). Calibration was performed using a HoloLab Calibration Accessory and a cyclohexane standard.

Data set [2] is described as follows: maximum solubility in water by turbidity measurements (CrystalBreeder). The note with it: at 37° C., Van't Hoff.
Procedure: (§1) Solubility measurements were taken using a CrystalBreeder system (Technobis). Known amounts of solid compound and water were added to 0.3 mL clear round bottom vials equipped with a stir bar. The vials were sealed with a Teflon coated rubber crimped caps to prevent evaporation of solvent. Vials were loaded into one of the independently heated aluminum reactor blocks and turbidity measurements were taken using an LED light source and detector to measure particles in solution. Samples were heated to 85° C. at a rate of 0.2° C./min, held at 85° C. for 30 minutes, and then cooled to 0° C. at a rate of 0.2° C./min. Clear points were calculated based on the temperature at which 100% transmittance of solution was reached. Van't Hoff plots of concentration vs. time were produced from the data using CrystalClear software (Technobis) to determine the solubility of each form at different temperatures.
Data set [3] in a line: pharmacokinetic studies in rats (oral suspension vs IV). As to conditions: rat; for % F (bioavailability): oral 30 mg/kg vs IV 15 mg/kg monohydrate; for AUC / Cmax / Tmax: oral gavage 30 mg/kg suspension, 30 mg/kg; for AUC / Cmax: plasma. The format is in vivo, Male Sprague-Dawley rats. How it is done: The bioavailability of the three forms was determined by comparison of suspension and intravenous administration in order to quantify the effect. […] Since the Tmax of the hemihydrate was much higher than the other two forms, it seems more compound was able to be absorbed overall even though over a somewhat longer time period, whereas the monohydrate and anhydrate were limited due to the solubility of the monohydrate form (FIG. 3).
Pharmacokinetic studies in rats were performed at Avastus Preclinical Services, Cambridge, Mass. All procedures were performed in accordance with the Guide for Care and Use of Laboratory Animals and were approved by the Avastus Institutional Animal Care and Use Committee. Male Sprague-Dawley rats weighing 200-300 g were dosed with mercaptopurine via oral gavage with a dosing volume of 5 mL/kg and a dose of 30 mg mercaptopurine form/kg or via IV administration at a dosing volume of 5 mL/kg and a dose of 15 mg mercaptopurine monohydrate/kg. Each group consisted of three rats, with one oral administration group for each form of mercaptopurine, and one IV administration group using the monohydrate form for reference. Blood samples were collected at time points of 15, 30, 60, 120, 240 minutes as well as 8 and 24 hours post dose. An additional time point at 5 minutes was taken for the IV administration group. Samples were centrifuged and the decanted plasma samples were stored at −80° C. until analysis.
The plasma samples were analyzed via LC-MS/MS using an Agilent 6410 mass spectrometer coupled with an Agilent 1200 HPLC and a CTC PAL chilled autosampler, all controlled by MassHunter software (Agilent). All plasma samples were crashed with three volumes of methanol containing an […] and centrifuged to remove precipitated protein before analysis. Samples were compared to a calibration curve prepared in rat blank plasma. Separation was performed on a C18 reverse phase HPLC column (Kinetex PFP, 2.6 μm, 2.1×50 mm) using an acetonitrile-water gradient system and peaks were analyzed by MS using ESI ionization in MRM mode. Peak area ratio to internal standard is used to interpolate plasma concentration for each sample from the calibration curve of peak area internal standard ratio to concentration. Pharmacokinetic parameters were fit using a custom WinNonlin analysis with PO dosing analysis. Area under the curve (AUC) for mercaptopurine was also calculated using the custom WinNonlin analysis. Cmax (maximum plasma concentration) and Tmax (time to reach maximum plasma concentration) were determined by visual inspection of the experimental data. The bioavailability (% F) was calculated from the following equation:
[formula] Frel was calculated with respect to the monohydrate form.

Data set [4] is described as follows: thermally-induced phase transitions by DSC and variable temperature PXRD. As to conditions: for loss of crystallinity corresponding with a loss of water: variable temperature PXRD, conversion to anhydrate. The format is physicochemical. How it is done:
DSC analysis and variable temperature PXRD were used to analyse the thermally-induced phase transitions of the compounds.
Variable temperature PXRD data were collected on a Rigaku SmartLab diffractometer using Cu-Kα radiation (λ=1.54187 Å) and operating at 40 kV and 44 mA. Samples were placed on a glass cover slip on top of a copper block that was heated at 2° C./min using a J-KEM Model 210 temperature controller. The setup was covered with a housing of Kapton to keep heat in but allow X-rays to penetrate. The spectrum was collected by scanning […] from 20 to 29° with a step size of 0.01° and a step speed of 0.1 seconds. Powder patterns were processed using Jade 8 XRD Pattern Processing, Identification & Quantification analysis software.^1
Thermograms of the monohydrate and hemihydrate forms were recorded on a TA Instruments Q20 DSC. […] Calibration of the instrument was performed using an indium standard. Thermograms were analyzed using TA Universal Analysis 2000, V 4.5A.
A general note: Differential scanning calorimetry records heat flow against a reference as temperature is scanned.

A further data set concerns some cancer lines. The note with it: cited from earlier work.
The next data set can be described thus: physchem. As to conditions: water, 37 °C, thermodynamic from solid.
For data set [5] the following is noted: at 37° C.; background statement; cited from earlier work.

Like-named read-outs stand apart in the source and are kept apart here.

One may read the AUC as the area under the concentration-time curve, a measure of exposure. As usually defined, the Cmax is the peak of the concentration-time curve. As usually defined, the Tmax is the time from dosing to the highest level. One may read the IC50 as the concentration at which inhibition is half-maximal. In general, solubility refers to the dissolved amount per volume that the medium holds. A low value points to a poorly soluble substance.

Procedure for physchem: as §1

Consider `Sc1ncnc2nc[nH]c12` [Anhydrate, mercaptopurine], for which, in data set [1], the “time to convert to the monohydrate form” value fell in the range of 2 to 5 h. For the same molecule, the “average solubility in water” value in data set [2] amounted to 400 µg/mL. In data set [3], the “% F (bioavailability)” value came out at 2.9%, the AUC came out at 430 ± 30 ng·h/mL, the Cmax amounted to 260 ± 10 ng/mL and the Tmax was determined as 49.8 ± 17.4 min.
Take `Sc1ncnc2nc[nH]c12` [Hemihydrate, mercaptopurine hemihydrate]: in data set [1] (hemihydrate), the “time to convert to the monohydrate form” value is listed as “approximately 70 hours”. Moreover, the “time at which conversion to the monohydrate begins” value in data set [1] (onset) is “approximately 5 hours”. The “average solubility in water” value in data set [2] (hemihydrate) worked out at 390 µg/mL. In addition, in data set [3] (hemihydrate), the “% F (bioavailability)” value amounted to 3.8%, the AUC turned out to be 570 ± 120 ng·h/mL, the Cmax stood at 280 ± 110 ng/mL and the Tmax turned out to be 100 ± 34.8 min. Moreover, the “dehydration temperature (water loss, endothermic event)” value in data set [4] (DSC / variable temperature PXRD) is 240 °C. Besides, the “loss of crystallinity corresponding with a loss of water” value in data set [4] (hemihydrate) is listed as “does not show any loss of crystallinity”.
`S=c1[nH]cnc2nc[nH]c12` [Mercaptopurine]: the IC50 with some cancer lines was 500 nM.
Molecule `Sc1ncnc2nc[nH]c12` [Monohydrate, mercaptopurine monohydrate] gave a solubility in “physchem” of 249 µg/mL. Also, the Cmax in data set [3] (male, Sprague-Dawley, po, read-out: Cmax) came out at 230 ± 50 ng/mL. Moreover, in data set [3] (monohydrate), the “% F (bioavailability)” value came to 1.4%, the AUC came out at 210 ± 60 ng·h/mL and the Tmax was found to be 49.8 ± 17.4 min. For the same molecule, the water solubility in data set [5] was 249 µg/mL. Further, the “Tmax of merged endothermic event (water loss and loss of crystallinity)” value in data set [4] (open DSC pan) was found to be 177 °C. In addition, in data set [4] (sealed DSC pan), the “loss of crystallinity event” value is approximately 190 °C and the water loss event is approximately 140 °C. For the same molecule, the “loss of crystallinity corresponding with a loss of water” value in data set [4] (monohydrate) was approximately 160 °C.
